# Earlier results, collected in article PMC5668067, “Phase I dose-escalation study of the c-Met tyrosine kinase inhibitor SAR125844 in Asian patients with advanced solid tumors, including patients with MET-amplified gastric cancer” (Oncotarget, 2017).
# Tests used:
# [1] = tested on: MET-amplified gastroesophageal junction, gastric, or esophageal tumors; design: method as in ref 16 = [16]; 16 Kwak EL LoRusso P Hamid O Janku F Kittaneh M Catenacci DV Chan E Bekaii-Saab TS Amore B Hwang YC Tang R Ngarmchamnanrith G Hong DS Clinical activity of AMG 337, an oral MET kinase inhibitor, in adu; conditions: eight of 13 patients with MET-amplified tumors; cited from earlier work
# [2] = tested on: highly MET-amplified (MET:CEP7 >5) gastroesophageal cancers; design: method as in PMID 22042947; conditions: cited from earlier work
# [3] = tested on: unselected gastric cancer patients; conditions: cited from earlier work
# [4] = tested on: gastric or gastroesophageal junction cancer; conditions: cited from earlier work
compound,measurement,setting,value
COCCOc1cnc2ccn([C@H](C)c3nnc4c(F)cc(-c5cnn(C)c5)cn34)c(=O)c2c1 [AMG 337],partial or near complete response,[1],62%
C[C@@H](Oc1cc(-c2cnn(C3CCNCC3)c2)cnc1N)c1c(Cl)ccc(F)c1Cl [crizotinib],patients with tumor shrinkage,[2],two of four
COc1cc2c(Oc3ccc(NC(=O)C4(C(=O)Nc5ccc(F)cc5)CC4)cc3F)ccnc2cc1OCCCN1CCOCC1 [foretinib],objective responses,[3],no objective responses
O=C1NC(=O)[C@@H](c2cn3c4c(cccc24)CCC3)[C@@H]1c1c[nH]c2ccccc12 [tivantinib],objective responses,[3],no objective responses
onartuzumab: an anti-c-Met antibody,survival benefit of addition to chemotherapy,[4]; regardless of c-Met expression,no survival advantage
rilotumumab: an anti-HGF antibody,clinical benefit combined with chemotherapy,[4]; c-Met-positive gastric or gastroesophageal junction cancer,failed to show clinical benefit
